Reference: patent US8653112B2, “Substituted pyrazoles as estrogen receptor ligands” (Karo Bio AB, priority 2009, dated 2014)

Target: T1, human ERβ (ERβ-LBD) (Homo sapiens, UniProt Q92731)
T1 construct: ERβ (ERβ-LBD, pET-N-AT #1, aa 255-530); biotinylation tag (in vivo biotinylated, pBirA co-expression); made in house; host or cells: E. coli BL21 (DE3) pBirA
Experiment: Binding assay 1: estrogen receptor binding assay (SPA, 3H-E2 displacement), ERβ
Conditions: displacement of 3H-E2, read-out: binding affinity to the estrogen receptor β-subtype, IC50
Description: Binding Assay 1: Estrogen Receptor Binding Assay
The estrogen receptor ligand binding assays are designed as scintillation proximity assays (SPA), employing the use of tritiated estradiol (^3H-E2) and recombinant expressed biotinylated estrogen receptor binding domains. The binding domains of human ERα (ERα-LBD, pET-N-AT #1, aa 301-595) and ERβ (ERβ-LBD, pET-N-AT #1, aa 255-530) proteins are produced in E. coli ((BL21, (DE3), pBirA)) at 22 C in 2×LB medium supplemented with 50 uM biotin. After 3 h of IPTG induction (0.55 mM), cells are harvested by centrifugation at 7300×g for 15 min and cell pellets stored frozen in −20C. Extraction of ERα and ERβ are performed using 5 g of cells suspended in 50 mL of extraction buffer (50 mM Tris, pH 8.0, 100 mM KCl, 4 mM EDTA, 4 mM DDT and 0.1 mM PMSF). The cell suspension is run twice through a Microfluidizer M-110L (Microfluidics) and centrifuged at 15,000×g for 60 min. The supernatant is aliquoted and stored in −70C.
Dilute ERαLBD or ERβ-LBD extracts in assay buffer (18 mM K2HPO4, 2 mM KH2PO4, 20 mM NasMoO4, 1 mM EDTA, 1 mM TCEP) 1:676 and 1:517 for alpha and beta respectively. The diluted receptor concentrations should be 900 fmol/L. Preincubate the extracts with streptavidin coated polyvinyltoluene SPA beads (RPNQ0007, GE Healthcare) at a concentration of 0.43 mg/mL for 1 hr at room temperature.
Test compounds are evaluated over a range of concentrations from 157 μM to 37.5 pM. The test compound stock solutions should be made in 100% DMSO at 5× of the final concentration desired for testing in the assay. The amount of DMSO in the test wells of the 384 well plate will be 20%. Add 18 μl aliquots of test compounds to the assay plates followed by 35 μl of the preincubated receptor/SPA bead mix and finally add 35 μl of 3 nM ^3H-E2. Cover the plates with a plastic sealer, centrifuge for 1 minute at 1000 rpm and equilibrate over night on a shaker at room temperature. The following morning, centrifuge the plates 5 minutes at 2000 rpm and measure on a plate scintillation counter e.g. a PerkinElmer Microbeta 1450 Trilux.
For compounds able to displace 3[H]-E2 from the receptor an IC50-value (the concentration required to inhibit 50% of the binding of 3[H]-E2) is determined by a non-linear four parameter logistic model; b=((bmax−bmin)/(1+(1/IC50)S))+bmin I is added concentration of binding inhibitor, IC50 is the concentration of inhibitor at half maximal binding and S is a slope factor. The Microbeta-instrument generates the mean cpm (counts per minute) value/minute and corrects for individual variations between the detectors thus generating corrected cpm values.

T1 sequence (Q92731 255-530): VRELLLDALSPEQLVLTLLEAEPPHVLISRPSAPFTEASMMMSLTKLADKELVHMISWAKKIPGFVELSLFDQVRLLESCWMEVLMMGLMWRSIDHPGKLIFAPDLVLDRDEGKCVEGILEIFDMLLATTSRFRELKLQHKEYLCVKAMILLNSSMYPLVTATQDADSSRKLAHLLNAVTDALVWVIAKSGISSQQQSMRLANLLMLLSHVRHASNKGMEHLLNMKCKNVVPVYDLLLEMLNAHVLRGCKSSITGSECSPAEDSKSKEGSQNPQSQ

IC50, 1 to 100 nM:
CCc1nn(-c2ccc(O)cc2F)c(-c2c(C)noc2C)c1C=NO (single isomer, unassigned) [Example 27, 5-(3,5-dimethylisoxazol-4-yl)-3-ethyl-1-(2-fluoro-4-hydroxyphenyl)-1H-pyrazole-4-carbaldehyde oxime]
Cc1noc(C)c1-c1c(-c2ccc(O)cc2F)nn(C)c1C=NO (single isomer, unassigned) [Example 48, 4-(3,5-dimethylisoxazol-4-yl)-3-(2-fluoro-4-hydroxyphenyl)-1-methyl-1H-pyrazole-5-carbaldehyde oxime]
Cn1nc(-c2ccc(O)cc2)c(-c2c(Cl)cccc2Cl)c1C=NO (single isomer, unassigned) [Example 45, 4-(2,6-dichlorophenyl)-3-(4-hydroxyphenyl)-1-methyl-1H-pyrazole-5-carbaldehyde oxime]
Cn1nc(-c2ccc(O)cc2)c(-c2c(F)cccc2F)c1C=NO (single isomer, unassigned) [Example 44, 4-(2,6-difluorophenyl)-3-(4-hydroxyphenyl)-1-methyl-1H-pyrazole-5-carbaldehyde oxime]
Cc1noc(C)c1-c1c(C=NO)c(C(C)C)nn1-c1ccc(O)cc1 (single isomer, unassigned) [Example 18, 5-(3,5-dimethylisoxazol-4-yl)-1-(4-hydroxyphenyl)-3-isopropyl-1H-pyrazole-4-carbaldehyde oxime]
Cc1noc(C)c1-c1c(-c2ccc(O)cc2)nn(C)c1C=NO (single isomer, unassigned) [Example 12, 4-(3,5-dimethylisoxazol-4-yl)-3-(4-hydroxyphenyl)-1-methyl-1H-pyrazole-5-carbaldehyde oxime]
Cc1cc(O)ccc1-c1nn(C)c(/C=N/O)c1-c1c(C)noc1C (single isomer, unassigned) [Example 63, (E)-4-(3,5-dimethylisoxazol-4-yl)-3-(4-hydroxy-2-methylphenyl)-1-methyl-1H-pyrazole-5-carbaldehyde oxime]
